Values after ≈ are worked out from the molar mass of the structure shown.
What was measured:
Type in all cases: cell-based
Candida albicans = test: minimum inhibitory concentration (MIC) against fungi, Cand. alb.
Excerpt: (§1) As examples of the effectiveness of the compounds of general Formula III against fungi, Table I indicates the minimum inhibitory concentrations (MIC) of several compounds. The comparison compounds are the known 2-Dimethylamino-6-(β-diethylaminoethoxy)-benzothiazole dihydrochloride and two 5-nitrothiazole derivatives substituted in the 2-position, which are known in the literature (J. Med. Chem. 12 [1969] 303).

[1] = test system: Trichophyton mentagrophytes; test: minimum inhibitory concentration (MIC) against fungi, Trich. ment.
Excerpt: as §1

Trichophyton rubrum = test: minimum inhibitory concentration (MIC) against fungi, Trich. rubr.
Excerpt: as §1

Row | MIC (Candida albicans) [µg/mL] | MIC [1] [µg/mL] | MIC (Trichophyton rubrum) [µg/mL] | SMILES
1 | 1.6 (≈ 5.71 µM) | 3.1 (≈ 11.1 µM) | 3.1 (≈ 11.1 µM) | Cc1ccc(C(=O)c2ncc([N+](=O)[O-])s2)c(F)c1C
2 | 50 (≈ 249 µM) | 50 (≈ 249 µM) | 50 (≈ 249 µM) | CCOC(=N)c1ncc([N+](=O)[O-])s1
3 | 25 (≈ 117 µM) | 12.5 (≈ 58.4 µM) | 12.5 (≈ 58.4 µM) | CC(=O)NN=Cc1ncc([N+](=O)[O-])s1
4 | 300 | 50 | 50 | CCN(CC)CCOc1ccc2nc(N(C)C)sc2c1.Cl.Cl [2-Dimethylamino-6-(β-diethylaminoethoxy)-benzothiazole dihydrochloride]
5 | 0.4 (≈ 1.25 µM) | 1.6 (≈ 5.01 µM) | 1.6 (≈ 5.01 µM) | O=C(c1ccc(Br)s1)c1ncc([N+](=O)[O-])s1
6 | 1.6 (≈ 5.47 µM) | 6.3 (≈ 21.6 µM) | 3.1 (≈ 10.6 µM) | Cc1cc(C(=O)c2ncc([N+](=O)[O-])s2)c(C)c(C)c1O

From US4006241A, “Certain halothien-2-yl 5-nitrothiazol-2-yl ketones and fungicidal composition” (Schering Aktiengesellschaft, priority 1973, dated 1977)
